Results published in patent US5496849A, “Sulfonic acid derivative and its pharmaceutical application” (Toray Industries, Inc., priority 1992, dated 1996).

Assays:
[1] = test system: platelet aggregation induced by U-46619 in human platelet-rich plasma (PRP); assay: Platelet aggregation inhibitory action (U-46619-induced, human platelet-rich plasma); type: cell-based; settings: compounds added 1 minute before U-46619, turbidity
Description: Human whole blood drawn from the median cubital vein was centrifuged for 10 minutes at 800 rpm, and the upper portion was collected as platelet-rich plasma (PRP). […] The size of the aggregates were measured with a platelet aggregate measuring instrument (Hematracer 1, Nikko Bioscience) as the change in turbidity. The compounds were added 1 minute before addition of U-46619, and the concentration which inhibits aggregation by 50% was calculated as the IC50 value.

Thromboxane A2 Receptor = target: T1, Thromboxane A2 Receptor (Oryctolagus cuniculus, UniProt Q6WQI8); assay: Receptor binding experiment: Thromboxane A2 Receptor Binding Test ([3H]SQ29548, washed platelets); parameters: species or system New Zealand White rabbits; settings: rabbit washed platelets; [3H]SQ29548 3 nM; 60 minutes at 25° C.; read-out: Binding Inhibitory Action IC50 (converted)
T1 sequence (Q6WQI8 1-233): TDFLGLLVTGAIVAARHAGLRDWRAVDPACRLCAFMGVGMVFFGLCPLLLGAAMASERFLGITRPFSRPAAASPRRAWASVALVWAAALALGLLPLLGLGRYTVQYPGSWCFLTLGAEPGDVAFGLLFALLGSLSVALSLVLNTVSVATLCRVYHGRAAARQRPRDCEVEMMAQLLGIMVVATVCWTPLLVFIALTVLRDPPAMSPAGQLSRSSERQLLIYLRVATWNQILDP
Description: Whole blood from New Zealand White rabbits was collected into a container containing ACD solution (1.175 g of sodium citrate, 0.685 g of citric acid, and 1 g of dextrose dissolved in 50 ml of distilled water) followed by centrifuging at room temperature for 10 minutes at 180 ×g to obtain platelet-rich plasma. Moreover, this platelet-rich plasma was further centrifuged at room temperature and 2800 ×g to result in sedimentation of the platelets. The platelets were resuspended in 50 mM Tris hydrochloric acid buffer solution (pH 7.2, containing […]) and again centrifuged at 4° C. for 15 minutes at 2800 ×g. This procedure was repeated twice to prepare the washed platelets, and adjusted to a final concentration of 10 mg/ml (wet weight). Tritium-labelled SQ29548 ([3H]SQ29548) was used for the TXA2 ligand. In an antagonism experiment, 20 μl of [3H]SQ29548 at a final concentration of 3 nM were added to 500 μl of a 10 mg/ml platelet suspension, together with adding 2.6 μl of the test drug dissolved in a suitable buffer. After incubating for 60 minutes at 25° C., the mixture was filtered over a glass filter using the Celherbster method, the filter was washed with 50 mM Tris hydrochloric acid buffer solution (3 ×4 ml), and radioactivity was measured with a scintillation counter to determine the amount of [3H]SQ29548 bound to the platelets. In addition, in a saturation test, 20 μl of [3H]SQ29548 were added to a final concentration of 0.1-50 nM followed by the addition of 2.6 μl of BM13505 at a final concentration of 1 μM in order to examine non-specific binding and carry out a binding experiment. The concentration of the test drug which inhibited binding of [3H]SQ29548 by 50% was determined as the IC50 value.

O=C(O)CCCc1cccc2c1O[C@H]1C[C@@H](O)[C@H](NS(=O)(=O)c3ccccc3)[C@@H]21 (racemic) [(45), (1RS, 2RS, 3aSR, 8bRS)-1-benzenesulfonamido-2-hydroxy-2,3,3a,8b-tetrahydro-1H-cyclopenta[b]benzofuran-5-butyric acid]
IC50 [1]: 4.3 µM | IC50 (Thromboxane A2 Receptor): 4.79 µM

O=C(O)COc1cccc2c1O[C@H]1C[C@@H](O)[C@H](NS(=O)(=O)c3ccc(C(F)(F)F)cc3)[C@@H]21 (racemic) [(65), (1RS, 2RS, 3aSR, 8bRS)-1-(p-trifluoromethylbenzenesulfonamido)-2-hydroxy-2,3,3a,8b-tetrahydro-1H-cyclopenta [b]benzofuran-5-yloxyacetic acid]
IC50 [1]: 0.27 µM | IC50 (Thromboxane A2 Receptor): 0.0972 µM

O=C(O)COc1cccc2c1O[C@H]1C[C@@H](O)[C@H](NS(=O)(=O)Cc3ccccc3)[C@@H]21 (racemic) [(74), (1RS, 2RS, 3aSR, 8bRS)-1-phenylmethanesulfonamido-2-hydroxy-2,3,3a,8b-tetrahydro-1H-cyclopenta[b]benzofuran-5-yloxyacetic acid]
IC50 [1]: 5.3 µM | IC50 (Thromboxane A2 Receptor): 0.858 µM

O=C(O)COc1cccc2c1O[C@H]1C[C@@H](O)[C@H](NS(=O)(=O)CCc3ccccc3)[C@@H]21 (racemic) [(76), (1RS, 2RS, 3aSR, 8bRS)-1-(2-phenylethanesulfonamido)-2-hydroxy-2,3,3a,8b-tetrahydro-1H-cyclopenta[b]benzofuran-5-yloxyacetic acid]
IC50 [1]: 0.55 µM | IC50 (Thromboxane A2 Receptor): 0.122 µM

O=C(O)COc1cccc2c1O[C@H]1C[C@@H](O)[C@H](NS(=O)(=O)c3ccc4ccccc4c3)[C@@H]21 (racemic) [(78), (1RS, 2RS, 3aSR, 8bRS)-1-(2-naphthalenesulfonamido)-2-hydroxy-2,3,3a,8b-tetrahydro-1H-cyclopenta[b]benzofuran-5-yloxyacetic acid]
IC50 [1]: 0.051 µM | IC50 (Thromboxane A2 Receptor): 0.00209 µM

CCCCS(=O)(=O)N[C@@H]1[C@H]2c3cccc(OCC(=O)O)c3O[C@H]2C[C@H]1O (racemic) [(82), (1RS, 2RS, 3aSR, 8bRS)-1-butanesulfonamido-2-hydroxy-2,3,3a,8b-tetrahydro-1H-cyclopenta[b]benzofuran-5-yloxyacetic acid]
IC50 [1]: 1 µM | IC50 (Thromboxane A2 Receptor): 1.22 µM

CCCCCCCCS(=O)(=O)N[C@@H]1[C@H]2c3cccc(OCC(=O)O)c3O[C@H]2C[C@H]1O (racemic) [(84), (1RS, 2RS, 3aSR, 8bRS)-1-octanesulfonamido-2-hydroxy-2,3,3a,8b-tetrahydro-1H-cyclopenta[b]benzofuran-5-yloxyacetic acid]
IC50 [1]: 7.3 µM | IC50 (Thromboxane A2 Receptor): 1.22 µM

COC(=O)COc1cccc2c1O[C@H]1C[C@@H](O)[C@H](CNS(=O)(=O)c3ccccc3)[C@@H]21 (racemic) [(96), (1SR, 2RS, 3aSR, 8bSR)-1-((benzenesulfonamido)methyl)-2-hydroxy-2,3,3a,8b-tetrahydro-1H-cyclopenta[b]benzofuran-5-yloxyacetic acid methyl ester]
IC50 [1]: 0.67 µM | IC50 (Thromboxane A2 Receptor): 0.415 µM

Cc1ccc(S(=O)(=O)O[C@H]2CC[C@@H]3Oc4c(OCC(=O)O)cccc4[C@@H]32)cc1 (racemic) [(123), (1SR, 3aSR, 8bSR)-1-((p-tolyl)sulfonyloxy)-2,3,3a,8b-tetrahydro-1H-cyclopenta[b]benzofuran-5-yloxyacetic acid]
IC50 [1]: 0.093 µM

O=C(O)COc1cccc2c1O[C@H]1CC[C@H](OS(=O)(=O)c3ccc(Cl)cc3)[C@@H]21 (racemic) [(125), (1SR, 3aSR, 8bSR)-1-((p-chlorophenyl)sulfonyloxy)-2,3,3a,8b-tetrahydro-1H-cyclopenta[b]benzofuran-5-yloxyacetic acid]
IC50 [1]: 0.094 µM

O=C(O)COc1cccc2c1O[C@H]1CC[C@H](OS(=O)(=O)c3ccc(F)cc3)[C@@H]21 (racemic) [(127), (1SR, 3aSR, 8bSR)-1-((p-fluorophenyl)sulfonyloxy)-2,3,3a,8b-tetrahydro-1H-cyclopenta[b]benzofuran-5-yloxyacetic acid]
IC50 [1]: 0.1 µM
